Results on seven compounds are retold here after patent US20040132639A1, “Combined use of enzyme inhibitors and pharmaceutical preparations thereof for the treatment and a prophylaxis of arteriosclerosis, for the treatment and prevention of allergic reactions of type I according to the gell and coombs classification and for the treatment and prevention of dermatological …” (priority 2001, published 2004).

Common to all, as to assay type: cell-based
Test [1] has as its system human HaCaT keratinocytes. The test is described as follows: DNA synthesis of human HaCaT keratinocytes (3[H]-thymidine incorporation). Conditions: simultaneous administration of DP IV inhibitor I49 and APN inhibitor actinonine; 48 h; Example 13, FIG. 14. Here is the method: HaCaT cells were incubated for 48 hours in presence of the above-mentioned inhibitors, and the DNA synthesis was subsequently determined by a measurement of ^3[H]-thymidine-incorporation, as described by Reinhold et al. (Reinhold D et al.: Inhibitors of dipeptidyl peptidase IV induce secretion of transforming growth factor β1 in PWM-stimulated PBMNC and T cells. Immunology 1997; 91; 354-360).
FIG. 14: Synergistic and dose-dependant effect of inhibitors of DP IV (I49) and of aminopeptidase N (actinonine) on the DNA synthesis of human HaCaT keratinocytes. The cells were incubated for 48 hours with the above-indicated concentrations of inhibitors. Subsequently, ^3[H]-methyl thymidine was added to the culture medium, and after further 6 hours, the amount of ^3[H]-thymidine incorporated into the DNA was measured.
Background: Uptake of a labelled nucleoside into DNA is a usual measure of proliferation.

For test [2], the system named is human peripheric T lymphocytes. In words: DNA synthesis of human T lymphocytes (3[H]-thymidine incorporation). The following applies: 72 h incubation. The procedure:
The T cells were incubated for 72 h in the presence of said inhibitors, and the DNA synthesis was determined subsequently by a measurement of the ^3[H]-thymidine incorporation, as described by Reinhold et al. (Reinhold D. et al.: Inhibitors of dipeptidyl peptidase IV induce secretion of transforming growth factor β1 in PWM-stimulated PBMNC and T cells; Immunology 1997, 91: 354-360).
FIG. 1: Synergistic and dose-dependent effect of inhibitors of DP IV (I49) and of aminopeptidase N (actinonine) on the DNA synthesis of human T lymphocytes. Human peripheric T cells were incubated for three days with the above-indicated concentrations of the inhibitors. Subsequently, ^3[H]-methyl thymidine was added to the culture medium, and after further 6 hours, the ^3[H]-thymidine amount incorporated into the DNA was measured.
FIG. 3: Synergistic and dose-dependent effect of inhibitors of DP IV (I49) and of prolyl oligopeptidase (Boc-Ala-Thia) on the DNA synthesis of human peripheric T lymphocytes. Human T cells were incubated for three days with the above-indicated concentrations of the inhibitors. Subsequently, ^3[H]-methyl thymidine was added to the culture medium, and after further 6 hours, the ^3[H]-thymidine amount incorporated into the DNA was measured.
FIG. 5: Synergistic and dose-dependent effect of inhibitors of DP IV (I49) and of angiotensin-converting enzyme (captopril) on the DNA synthesis of human peripheric T lymphocytes.
Human T cells were incubated for three days with the above-indicated concentrations of the inhibitors. Subsequently, ^3[H]-methyl thymidine was added to the culture medium, and after further 6 hours, the ^3[H]-thymidine amount incorporated into the DNA was measured.

Test [3] relates to PHA-activated human mononuclear cells (MNC). In words: Proliferation of PHA-activated human MNC (WST-1 Cell-Proliferation Assay). The following applies: 72 h. Here is the method:
FIG. 7: The MNC were incubated for the time of 72 hours without (control), with mitogenic lectin phytohemagglutinine (PHA) or with PHA plus the inhibitors indicated. Subsequently, there was carried out a determination of the number of metabolically active cells by using the commercially available WST-1 Cell-Proliferation Assay (Takara Inc.) in accordance with the proposals of the manufacturer.
FIG. 10: The mononuclear cells (MNC) were incubated for a time of 72 hours in the presence of the above-indicated inhibitors singly or in combination. Subsequently, there was carried out a determination of the number of metabolically active cells by using the commercially available WST-1 Cell-Proliferation Assay (Takara Inc.) in accordance with the proposals of the manufacturer.
A general note: Formazan colour is commonly taken as a measure of viable cells.

Test [4] concerns activated human peripheric T cells. The test is described as follows: Proliferation of activated human peripheric T cells (WST-1 Cell-Proliferation Assay). Conditions: single and simultaneous administration of I49 and APN inhibitors actinonine and probestine; activation by phytohemagglutinine and phorbol-12-myristate-13-acetate; 72 h; Example 9, FIG. 9. The procedure: FIG. 9: The T cells with the exception of the untreated control, were activated by an addition of phytohemagglutinine and phorbol-12-myristate-13-acetate to the culture medium and were incubated for a time of 72 hours in the presence of the above inhibitors singly or in combination. Subsequently, there was carried out a determination of the number of metabolically active cells by using the commercially available WST-1 Cell-Proliferation Assay (Takara Inc.) in accordance with the proposals of the manufacturer.

Test [5] deals with human peripheric mononuclear cells (MNC). In words: DNA synthesis of human peripheric mononuclear cells (3[H]-thymidine incorporation). The following applies: 72 h incubation. Here is the method:
The MNC were incubated for 72 h in the presence of said inhibitors, and the DNA synthesis was determined subsequently by a measurement of the ^3[H]-thymidine incorporation, as described by Reinhold et al. (Reinhold D. et al.: Inhibitors of dipeptidyl peptidase IV induce secretion of transforming growth factor β1 in PWM-stimulated PBMNC and T cells; Immunology 1997, 91: 354-360).
FIG. 2: Synergistic and dose-dependent effect of inhibitors of DP IV (I49) and of APN (actinonine) on the DNA synthesis of human mononuclear cells (MNC). Human MNC were incubated for three days with the above-indicated concentrations of the inhibitors. Subsequently, ^3[H]-methyl thymidine was added to the culture medium, and after further 6 hours, the ^3[H]-thymidine amount incorporated into the DNA was measured.
FIG. 4: Enhanced and dose-dependent effect of inhibitors of DP IV (I49) and of prolyl oligopeptidase (Boc-Ala-Thia) on the DNA synthesis of human mononuclear cells (MNC). Human MNC were incubated for three days with the above-indicated concentrations of the inhibitors. Subsequently, ^3[H]-methyl thymidine was added to the culture medium, and after further 6 hours, the ^3[H]-thymidine amount incorporated into the DNA was measured.
FIG. 6: Synergistic and dose-dependent effect of inhibitors of DP IV (I49) and of angiotensin-converting enzyme (captopril) on the DNA synthesis of human mononuclear cells (MNC). Human MNC were incubated for three days with the above-indicated concentrations of the inhibitors. Subsequently, ^3[H]-methyl thymidine was added to the culture medium, and after further 6 hours, the ^3[H]-thymidine amount incorporated into the DNA was measured.

Another test relates to KARPAS-299 cells. In words: Proliferation of human T cell line KARPAS-299 (WST-1 Cell-Proliferation Assay). The following applies: single and simultaneous administration of I49 and APN inhibitors actinonine and probestine; 72 h; Example 8, FIG. 8. The procedure:
FIG. 8: The KARPAS-299-cells were incubated for a time period of 72 hours without (control) and with the above-indicated inhibitors singly or in combination. Subsequently, there was carried out a determination of the number of metabolically active cells by using the commercially available WST-1 Cell-Proliferation Assay (Takara Inc.) in accordance with the proposals of the manufacturer.

For test [6], the system named is pokeweed-mitogene stimulated human MNC of the peripheral blood. The test is described as follows: DNA synthesis of pokeweed-mitogene stimulated human MNC (3[H]-thymidine incorporation). The following applies: simultaneous administration of DP IV inhibitor I49 and APN inhibitor bestatine; PWM 2 μg/ml; 72 h; Example 11, FIG. 11. Here is the method:
The MNC were incubated for 72 hours in the presence of pokeweed-mitogene and of said inhibitors, and the DNA synthesis was determined subsequently by a measurement of the ^3[H]-thymidine-incorporation, is described by Reinhold et al. (Reinhold D et al.: Inhibitors of dipeptidyl peptidase IV induce secretion of transforming growth factor β1 in PWM-stimulated PBMNC and T cells. Immunology 1997; 91; 354-360).
FIG. 11: Synergistic and dose-dependent effect of inhibitors of DP IV (I49) and of aminopeptidase N (bestatine) on the DNA synthesis of human PWM-stimulated MNC. Human peripheric MNC were incubated for three days with PWM (2 μg/ml) and the above-indicated concentration of inhibitors. Subsequently, ^3[H]-methyl thymidine was added to the culture medium, and the amount of ^3[H]-thymidine incorporated into the DNA was measured after further 6 hours.

Test [7] concerns IL-4 production by pokeweed-mitogene stimulated human mononuclear cells (MNC). The test is described as follows: IL-4 production by pokeweed-mitogene stimulated human MNC (IL-4 ELISA). Conditions: simultaneous administration of DP IV inhibitor I49 and APN inhibitor bestatine; PWM 2 μg/ml; 48 h; culture supernatants; Example 12, FIG. 12. Here is the method:
The MNC were incubated for 48 hours in the presence of pokeweed-mitogene and of said inhibitors, and the concentration of IL-4 was subsequently determined in the respective culture supernatants by means of commercially available IL-4 analysis kids (ELISA) as described by Reinhold et al. (Reinhold D et al.: Inhibitors of dipeptidyl peptidase IV induce secretion of transforming growth factor β1 in PWM-stimulated PBMNC and T cells. Immunology 1997; 91; 354-360).
FIG. 12: Synergistic and dose-dependent effect of inhibitors of DP IV (I49) and of aminopeptidase N (bestatine) on the IL-4-production by human, PWM-stimulated MNC. Human peripheric MNC were incubated for 48 hours with PWM (2 μg/ml) and with the above-indicated concentrations of the inhibitors. Subsequently, the concentration of IL-4 in the respective culture supernatants were measured by means of IL-4-ELISA.
(In general: An ELISA detects its analyte on a solid surface through an enzyme-linked reagent.)

Setting [8] is: simultaneous administration of DP IV inhibitor I49 and APN inhibitor actinonine, Example 1, FIG. 1.
Setting [9] is: single and simultaneous administration of I49 and actinonine, PHA, Example 7, FIG. 7.
The mark [10] stands for this setting: simultaneous administration of DP IV inhibitor I49 and APN inhibitor actinonine, Example 2, FIG. 2.
The mark [11] stands for this setting: single and simultaneous administration of I49 and X-Pro-aminopeptidase (APP) inhibitor apstatine, Example 10, FIG. 10.
[12] abbreviates: simultaneous administration of DP IV inhibitor I49 and prolyl oligopeptidase inhibitor Boc-Ala thiazolidide, Example 3, FIG. 3.
Setting [13] is: simultaneous administration of DP IV inhibitor I49 and prolyl oligopeptidase inhibitor Boc-Ala thiazolidide, Example 4, FIG. 4.
Setting [14] is: simultaneous administration of DP IV inhibitor I49 and ACE inhibitor captopril, Example 5, FIG. 5.
Where [15] appears, read: simultaneous administration of DP IV inhibitor I49 and ACE inhibitor captopril, Example 6, FIG. 6.

Regarding `CCCCC[C@H](CC(=O)NO)C(=O)N[C@H](C(=O)N1CCC[C@H]1CO)C(C)C` [Actinonine], the “inhibition of DNA synthesis” value in test [1] is “inhibited, in a more than additive and, at lower concentrations, also in a superadditive manner”; in test [2] (setting [8]) it was “inhibited, in a more than additive to superadditive manner”; in test [5] (setting [10]), “inhibited, in a more than additive to superadditive manner”. The “inhibition of proliferation (number of metabolically active cells)” value (“inhibition of proliferation” for short) (in test [3] (setting [9]); in test [4]; in the test on KARPAS-299 cells) was “Inhibition of the Proliferation” in each case.

Regarding `C[C@H](NC(=O)[C@@H]1CCCN1C(=O)[C@@H]1CCCN1C(=O)[C@@H](O)[C@H](N)Cc1ccccc1)C(N)=O` [Apstatine], the “inhibition of proliferation” value in test [3] (setting [11]) is recorded as “Inhibition of the Proliferation”.

As for `CC(C)C[C@H](NC(=O)[C@@H](O)[C@H](N)Cc1ccccc1)C(=O)O` [Bestatine], the “inhibition of DNA synthesis” value in test [6] is reported as “inhibited, in a more than additive manner”. The “inhibition of IL-4 production” value in test [7] is “inhibited, in a more than additive to superadditive manner”.

Regarding `CC(NC(=O)OC(C)(C)C)C(=O)N1CCSC1` (stereo not shown) [Boc-Ala thiazolidide], the “inhibition of DNA synthesis” value is “inhibited, in a more than additive to superadditive manner” in test [2] (setting [12]) and “inhibited, in an increased manner” in test [5] (setting [13]).

Turning to `C[C@H](CS)C(=O)N1CCC[C@H]1C(=O)O` [Captopril], the “inhibition of DNA synthesis” value in test [2] (setting [14]) is listed as “inhibited, in a more than additive to superadditive manner”; in test [5] (setting [15]), “inhibited, in a more than additive to superadditive manner”.

For `N[C@@H](CCCCNC(=O)OCc1ccc([N+](=O)[O-])cc1)C(=O)N1CCSC1` [I49, Lys[Z(NO2)]-thiazolidide], the “inhibition of DNA synthesis” value in test [1] is listed as “inhibited, in a more than additive and, at lower concentrations, also in a superadditive manner”; in test [2] (setting [14]), “inhibited, in a more than additive to superadditive manner”; in test [2] (setting [8]), “inhibited, in a more than additive to superadditive manner”; in test [2] (setting [12]), “inhibited, in a more than additive to superadditive manner”; in test [5] (setting [15]), “inhibited, in a more than additive to superadditive manner”; in test [5] (setting [10]), “inhibited, in a more than additive to superadditive manner”. Besides, the “inhibition of DNA synthesis” value in test [5] (setting [13]) was “inhibited, in an increased manner”; in test [6], “inhibited, in a more than additive manner”. Also, the “inhibition of proliferation” value (in test [3] (setting [11]); in test [3] (setting [9]); in test [4]; in the test on KARPAS-299 cells) was “Inhibition of the Proliferation” throughout. The “inhibition of IL-4 production” value in test [7] is given as “inhibited, in a more than additive to superadditive manner”.

Turning to Probestine, the “inhibition of proliferation” value (in test [4]; in the test with KARPAS-299 cells) was “Inhibition of the Proliferation” each time.
